Experimental data from patent US20250049831A1, “ANTIVIRAL USE OF BISE[…], AND BISEPOXYLIGNAN COMPOSITION AND PREPARATION OF BISE[…]” (priority 2021, published 2025).
Like-named read-outs stand apart in the source and are kept apart here.

Assays:
TNF-α = test: Serum TNF-α in mice infected with influenza virus; assay type: in vivo, ICR mice; conditions: Day 5 after influenza virus infection, gavage once a day, x ± s
Procedure: (§1) On the Day 5 after influenza virus infection, that is, Day 6 after administration, after the mice were fasted with solids for 8 h and weighed, venous blood was collected from the plexus ophthalmicus, and blood from mice in each group was preserved, subjected to serum separation, and stored in a refrigerator for later use. According to the instructions of a test kit, various detection and analysis were carried out, and IL-2 and TNF-α concentrations were calculated based on the standard detection and standard curve plotting.

influenza virus [1] = test: Effect of drug on virus-induced CPE (MTT, antiviral effective rate), influenza virus in Vero cells; assay type: cell-based; conditions: Vero cells, 100TCID50, drug at experimental concentration of Table 3-2 (about maximum non-toxic), 72 h, MTT
influenza virus [2] = assay type: in vivo, Kunming mice; conditions: for Hemagglutination titer inhibition rate (%): Day 5; for Hemagglutination titer: lung suspension
parainfluenza virus [3] = test: Effect of drug on virus-induced CPE (MTT, antiviral effective rate), parainfluenza virus in Vero cells; assay type: cell-based
parainfluenza virus [4] = assay type: in vivo, Kunming mice; conditions: for Hemagglutination titer inhibition rate (%): Day 5; for Hemagglutination titer: lung suspension, Day 5, […]
Vero cells = test: Drug cytotoxicity assay (MTT) on Vero cells; assay type: cell-based, African green monkey; conditions: 72 h, Probit regression
Text: Vero cells were subcultured for 1-2 d to make them into flakes, and trypsinized in the presence of clear boundaries, strong three-dimensional sense and strong refractive power, until needle-like holes appeared on the cell surfaces; after the trypsinization solution was absorbed completely, a few milliliters of culture medium were taken to blow away the cells; the cells were counted, diluted to about 5×10^7/L with a culture medium (DMEM containing 10% fetal bovine serum), and then inoculated in a 96-well culture plate; and the cells grew into a monolayer.
Cytotoxicity test: the drugs were diluted at the concentrations shown in Table 3-1 for cytotoxicity assay.

IL-2 = test: Serum IL-2 in mice infected with influenza virus; assay type: in vivo, ICR mice; conditions: Day 5 after influenza virus infection, gavage once a day, x ± s
Procedure: as §1

COVID-19 Delta virus [5] = test: Prophylactic administration, death protection of mice infected with COVID-19 Delta virus; conditions: for Death rate / Survival rate / Mean survival: within 5 days of Delta infection, n = 8; for Mean survival: x ± s
Procedure: hACE2 transgenic C57BL/6 mice were divided (8 mice in each group) into a normal group (NC), a virus infection group (Virus), and drug groups (a COVID-19 Delta virus low-dose (40 mg/kg) group, high-dose (80 mg/kg) group; and a positive control group (Remdesivir 50 mg/kg). Before nasal dripping infection, the drug was administered by gavage 5 days in advance, once a day. After 5 days of continuous gavage, nasal dripping infection was performed, and mice in each COVID-19 virus infection group were infected with COVID-19 Delta virus with 10′ PFU by nasal dripping, except for the normal group who were given PBS by nasal dripping.
After infection, the body weight change was recorded every day, the death of animals within 5 days of infection was recorded, and the mean survival days and mortality rate of 5 days were calculated.

MCP-1 = test: RT-qPCR of MCP-1 in lung homogenate of mice infected with COVID-19 Delta virus; conditions: mRNA RT-qPCR, NC = 1.00
IL-1β = test: RT-qPCR of IL-1β in lung homogenate of mice infected with COVID-19 Delta virus; conditions: mRNA RT-qPCR, NC = 1.00
COVID-19 Delta virus [6] = test: Prophylactic administration, virus titer in lung tissues of mice infected with COVID-19 Delta virus; conditions: prophylactic gavage 5 days before infection, Day 5 after infection, TCID50 on VERO E6 cells
influenza virus FM1 = test: Action links (Groups I-IV: prevention, treatment, direct inactivation), protection of cells against influenza virus; assay type: cell-based; conditions: for Protection rate (ER %), Group IV: drug and virus mixed and adsorbed for 2 h, then added with cells (direct inactivation); for Protection rate (ER %), Group III: drug solution and virus solution added at the same time (direct inactivation); for Protection rate (ER %), Group II: virus added first, drug added 1 h after adsorption (treatment); for Protection rate (ER %), Group I: virus solution added after 24 h of drug administration (prevention)
parainfluenza virus [7] = test: Action links (Groups I-IV: prevention, treatment, direct inactivation), protection of cells against parainfluenza virus; assay type: cell-based; conditions: for Protection rate (ER %), Group IV: drug and virus mixed and adsorbed for 2 h, then added with cells (direct inactivation); for Protection rate (ER %), Group III: drug solution and virus solution added at the same time (direct inactivation); for Protection rate (ER %), Group II: virus added first, drug added 1 h after adsorption (treatment); for Protection rate (ER %), Group I: virus solution added after 24 h of drug administration (prevention)
[8] = prophylactic administration, High dose
[9] = prophylactic administration, Low dose
[10] = high-dose group 80 mg/kg gavage 5 days
[11] = low-dose group 40 mg/kg gavage 5 days

SMILES	TNF-a expression level (TNF-α; High-dose group (26.0 mg/kg))	TNF-a expression level (TNF-α; Low-dose group (13.0 mg/kg))	Protection rate (ER %), Group IV (influenza virus FM1) [%]	Protection rate (ER %), Group III (influenza virus FM1) [%]	Protection rate (ER %), Group II (influenza virus FM1) [%]	Protection rate (ER %), Group I (influenza virus FM1) [%]	Protection rate (ER %), Group IV (parainfluenza virus [7]) [%]	Protection rate (ER %), Group III (parainfluenza virus [7]) [%]	Protection rate (ER %), Group II (parainfluenza virus [7]) [%]	Protection rate (ER %), Group I (parainfluenza virus [7]) [%]	Death rate (COVID-19 Delta virus [5]; [8]) [%]	Survival rate (COVID-19 Delta virus [5]; [8]) [%]	Mean survival (COVID-19 Delta virus [5]; [8]) [days]	Death rate (COVID-19 Delta virus [5]; [9]) [%]	Survival rate (COVID-19 Delta virus [5]; [9]) [%]	Mean survival (COVID-19 Delta virus [5]; [9]) [days]	Expression level of MCP-1 in lung homogenate (x ± s) (MCP-1; [10])	Expression level of MCP-1 in lung homogenate (x ± s) (MCP-1; [11])	Hemagglutination titer inhibition rate (%) (influenza virus [2]; 13.0 mg/kg)	Expression level of IL-1β in lung homogenate (x ± s) (IL-1β; [10])	other results
CCOC(=O)C1=C[C@@H](OC(CC)CC)[C@H](NC(C)=O)[C@@H](N)C1 [Oseltamivir phosphate, reference compound]																					TNF-a expression level (TNF-α; 19.5 mg/kg): 658.91 ± 38.33; Effective rate, ER %, Influenza Virus (influenza virus [1]): 81.92%; Hemagglutination titer inhibition rate (%) (influenza virus [2]; 19.5 mg/kg): 37.78%; Hemagglutination titer (influenza virus [2]; 19.5 mg/kg, Day 5, titer (InX)): 22.07 ± 0.235; Effective rate, ER %, Parainfluenza Virus (parainfluenza virus [3]): 91.16%; Hemagglutination titer inhibition rate (%) (parainfluenza virus [4]; 19.5 mg/kg): 32.93%; Hemagglutination titer (parainfluenza virus [4]; 19.5 mg/kg): 23.22 ± 0.648; Maximum non-toxic concentration (TC0) (Vero cells): 0.29 g/L; Median toxic concentration (TC50) (Vero cells): 831 µg/mL; IL-2 expression level (IL-2; 19.5 mg/kg): 279.83 ± 23.26
CCC(CC)COC(=O)[C@H](C)N[P@](=O)(OC[C@H]1O[C@@](C#N)(c2ccc3c(N)ncnn23)[C@H](O)[C@@H]1O)Oc1ccccc1 [Remdesivir, reference compound]																					Death rate (COVID-19 Delta virus [5]; 50 mg/kg): 75.00%; Survival rate (COVID-19 Delta virus [5]; 50 mg/kg): 25.00%; Mean survival (COVID-19 Delta virus [5]; 50 mg/kg): 3.88 ± 0.83 days; Death protection rate (COVID-19 Delta virus [5]; prophylactic administration, 50 mg/kg, within 5 days of infection): 75%; Expression level of MCP-1 in lung homogenate (x ± s) (MCP-1; 50 mg/kg, 5 days): 6.88 ± 5.73; Expression level of IL-1β in lung homogenate (x ± s) (IL-1β; 50 mg/kg, 5 days): 9.52 ± 6.37; Lung virus titer (x ± s, n = 8) (COVID-19 Delta virus [6]; 50 mg/kg): 3.69 ± 1.06
COc1cc(O)cc(C2OCC3C(c4ccc(OC5OC(CO)C(O)C(O)C5O)c(OC)c4)OCC23)c1 [Serial No. 1, (7,8,7′,8′)-7,7′-bisepoxy-5′-hydroxy-3,3′hydroxy-bismethoxylignan, 4-O-β-D-glucoside]	608.95 ± 34.92	673.65 ± 26.44	100.76	100.52	75.77	75.49	100.82	100.49	85.95	84.39	12.50	87.50	4.88 ± 0.35	75.00	25.00	4.25 ± 0.46	3.26 ± 9.77	6.13 ± 15.12	43.39	4.80 ± 18.82	Hemagglutination titer (influenza virus [2]; 13.0 mg/kg, Day 5, titer (InX)): 20.08 ± 0.381; Expression level of IL-1β in lung homogenate (x ± s) (IL-1β; [11]): 9.13 ± 8.66; Hemagglutination titer inhibition rate (%) (parainfluenza virus [4]; 13.0 mg/kg): 37.46%; Hemagglutination titer (parainfluenza virus [4]; 13.0 mg/kg): 21.65 ± 0.238; Lung virus titer (x ± s, n = 8) (COVID-19 Delta virus [6]; high dose 80 mg/kg): 2.93 ± 0.34; Lung virus titer (x ± s, n = 8) (COVID-19 Delta virus [6]; low dose 40 mg/kg): 3.36 ± 0.28; IL-2 expression level (IL-2; High-dose group (26.0 mg/kg)): 259.04 ± 39.98; IL-2 expression level (IL-2; Low-dose group (13.0 mg/kg)): 288.64 ± 25.05
COc1ccc([C@H]2OC[C@H]3[C@@H]2CO[C@H]3c2ccc(O[C@@H]3O[C@H](CO)[C@@H](O)[C@H](O)[C@H]3O)c(OC)c2)cc1OC [Serial No. 2, phillyrin]	618.38 ± 28.86	683.47 ± 37.37	100.86	100.68	75.58	75.86	100.93	100.67	85.94	84.48	12.50	87.50	4.88 ± 0.35	75.00	25.00	3.88 ± 0.83	3.66 ± 11.30	7.42 ± 12.66	43.30	5.11 ± 14.34	Hemagglutination titer (influenza virus [2]; 13.0 mg/kg, Day 5, […]): 20.11 ± 0.351; Expression level of IL-1β in lung homogenate (x ± s) (IL-1β; [11]): 10.58 ± 10.22; Hemagglutination titer inhibition rate (%) (parainfluenza virus [4]; 13.0 mg/kg): 37.52%; Hemagglutination titer (parainfluenza virus [4]; 13.0 mg/kg): 21.63 ± 0.330; Lung virus titer (x ± s, n = 8) (COVID-19 Delta virus [6]; high dose 80 mg/kg): 2.95 ± 0.57; Lung virus titer (x ± s, n = 8) (COVID-19 Delta virus [6]; low dose 40 mg/kg): 3.70 ± 0.25; IL-2 expression level (IL-2; High-dose group (26.0 mg/kg)): 262.88 ± 35.66; IL-2 expression level (IL-2; Low-dose group (13.0 mg/kg)): 293.00 ± 21.88
